Assay results from patent US20050118565A1, “Systems and methods for assessing neuronal degeneration” (priority 2003, published 2005).

Key:
[1] = tested on: cultured hippocampal samples; assay: fEPSP recording on MED probe: neurodegeneration induced by NMDA and AMPA; type: cell-based, Sprague-Dawley rats; conditions: for effect of chronic exposure on synaptic responses: chronic exposure of cultured hippocampal samples; for Hill coefficient: electrophysiology dose-response curve; for EC50: electrophysiology, various concentrations of agonist, read-out: EC50 (decrease of synaptic responses, Hill fit of plateau values of I/O curves); for synaptic responses, of the initial amplitude: then one hour of NMDA wash-out
Procedure: Before use, the MED probes (Panasonic, model MED-P530AP, each electrode: […], interpolar distance: 300 μm) were soaked in 70% ethanol for 15 minutes, dried, and then sterilized with UV radiation for 15 minutes. The probe surfaces were treated overnight at room temperature with 0.1% polyethylenimine and 25 mM borate buffer, pH 8.4. The probe surface was then dried and rinsed 3 times with sterile distilled water. Finally, the probes were filled with culture medium and stored in a CO2 incubator until use (for at least one hour). The culture medium was a 2:1 mixture of Basal Medium Eagle Medium (Sigma, Catalog No. B9638) and Earle Balanced Salts Solution (Sigma, Catalog No. E7510), supplemented with the following compounds (in mM): NaCl (20), NaHCO3 (5), CaCl2 (0.2), MgSO4 (1.7), glucose (48), HEPES (26.7); 5% horse serum (GIBCO, Catalog No. 26050) and 10 ml/L penicillin-streptomycin (GIBCO, Catalog No. 10378). The pH of culture medium was then adjusted to 7.2.
All procedures for culture preparation were carried out under a sterilized bench. Eleven day-old Sprague-Dawley rats were first sterilized with 70% ethanol, sacrificed by decapitation following anesthesia and the whole brain removed. The brains were immediately soaked in sterile ice-cold MEM (pH 7.2; GIBCO, Catalog No. 61100), supplemented with HEPES (25 mM), Tris-base (10 mM), glucose (10 mM) and MgCl2 (3 mM). Appropriate portions of the brain were then trimmed by hand and the remaining brain block placed on an ice-cold stage of a vibrating tissue slicer (Leica, model VT1000S). The thickness of the slices was set at 200 μm. The slices were gently taken off from the blade with a pipette. Each slice was trimmed, placed on the center of the MED probe, which was previously coated as mentioned above, and positioned to cover the 8×8 microelectrode array.
After positioning the section on the MED probe, the cutting solution was removed and culture medium added to the slice up to an interface level (approximately […]). Sterile distilled water was added around the probe to increase humidity and prevent over-drying of the culture medium in the MED probe. The slices on the MED probes were then stored in a CO2 incubator at 34° C. The medium was exchanged with half volume every day.
(§1) For baseline electrophysiological recordings in hippocampal samples, the MED probes containing the samples were removed from the incubator and placed in a smaller CO2 incubator at 34° C. and connected to the stimulation/recording component of the probe. The culture medium was replaced with sterile artificial cerebrospinal fluid (ACSF) of the following composition (in mM): NaCl (124), NaHCO3 (26), glucose (10), KCl (3), NaH2PO4 (1.25), CaCl2 (2), MgSO4 (1), and HEPES (10).
(§2) Evoked field potentials at all 64 sites were then recorded simultaneously with the multi-channel recording system (Panasonic, MED64 system) at a 20 kHz sampling rate. One of the planar microelectrodes of the 64 available was used for cathode stimulation. Bipolar constant current pulses (10 to 45 μA, 0.1 msec) were then produced. To collect typical responses in field CA1, one of the electrodes in the Schaffer collateral fibers was selected as a stimulating electrode while another one in stratum radiatum was selected as a recording electrode. Synaptic responses were recorded at eight-step stimulation intensities (10 to 45 μA, 5 μA steps). After each recording session, ACSF was replaced with culture medium and the samples in the probes were returned to the CO2 incubator.
fEPSPs were recorded at 20 s intervals using a paired-pulse stimulation paradigm with an inter-pulse interval of 50 msec. […] Slope and decay time of the responses were remarkably similar to those recorded in acutely prepared slices using the same system (FIG. 2C). […]

[2] = tested on: cultured hippocampal samples; assay: PI uptake method, dose-response of excitotoxins; type: cell-based; conditions: for Hill coefficient (PI uptake method): PI uptake dose-response curve; for EC50: PI uptake, read-out: EC50 from the PI uptake method
Procedure: The mechanisms underlying the reduction in amplitude of synaptic responses produced by incubation with these two excitotoxins were further studied by applying various concentrations of NMDA and AMPA to tissue samples. As in the control experiments, the plateau values of the respective I/O curves were used for the analysis (FIGS. 4A and 4B). […] For comparison, dose-response curves obtained with the PI uptake method were plotted in the same figures (FIGS. 4A and 4B, open circles and dashed lines).

[3] = tested on: neuronal samples chronically exposed to NMDA; assay: Neuroprotectant assay: fEPSP amplitude on MED probe with 10 μM NMDA as excitotoxin; type: cell-based, Sprague-Dawley rats
Procedure: An assay for identifying neuroprotectants first involves testing the stability of the recordings by comparing FEPSP amplitudes measured at the beginning of the experiments with those measured later, e.g., after at least 3, 24, 48, and 72 hours at the same stimulation intensity (FIG. 1C). For data analysis, the amplitude of the maximal (plateau) value of the I/O curve is used to determine stability of the recordings. Typically, it corresponds to responses obtained by stimulation intensities of […] (FIG. 2B).
NMDA was selected as the excitotoxin. Based on the dose-response analysis described above (FIG. 4A), 10 μM NMDA was chosen as the concentration of agonist for use in this neuroprotectant assay. […] The neuronal samples and MED probes were prepared as described above.
After performing control measurements, neuronal samples were incubated in culture medium containing 10 μM NMDA and 1 μM MK-801 for various periods of time. […] The relative amplitude of synaptic responses measured at stimulation intensities corresponding to the plateau of I/O curves after 3 days of incubation was 91±6% of control (n=3).
After performing control measurements, neuronal samples were incubated in culture medium containing 10 μM NMDA and 30 μM memantine for various periods of time. […] However the degree of protection was much smaller than that provided by MK-801, as only 78±5% (n=3) of the initial amplitude was preserved under these conditions. The concentration dependency of memantine protection was studied using 10 μM NMDA and various concentrations of memantine.

[4] = tested on: neuronal samples; assay: fEPSP recording on MED probe: incubation with NMDA antagonist alone; type: cell-based, Sprague-Dawley rats; conditions: for amplitudes of responses, of control: n=3
Procedure: as §1, §2
However, after 1, 2, and 3 days of incubation, the amplitudes of responses were decreased to 83±6%, 79±11%, and 76±10% (n=3) of control, respectively.

Cc1onc(O)c1CC(N)C(=O)O (stereo not drawn) [AMPA, amino-3-hydroxy-5-methyl-4-isoxazolepropionic acid]
recovery of synaptic responses after agonist removal ([1]; 1 μM AMPA 3 days, then 24 hours of AMPA removal): no recovery was observed
time course of the decrease in synaptic response ([1]; 1 μM AMPA, three hours and subsequent time points): continued to decrease at subsequent time points, stabilizing after 1 day
amplitude of synaptic responses, of control values ([1]; 40 min. incubation with 3 μM AMPA, n=3): 12±5%
synaptic response amplitudes ([1]; 3 days of incubation with 1 μM AMPA, n=3): 46±4%
effect of chronic exposure on synaptic responses [1]: dose-dependent decreases in synaptic responses
Hill coefficient [1]: 2.6±0.8
EC50 [1]: 0.81 ± 0.1 µM
Hill coefficient (PI uptake method) [2]: 2.0±0.1
EC50 [2]: 3.87 ± 0.1 µM

CN[C@H](CC(=O)O)C(=O)O [NMDA, N-methyl-D-aspartate]
synaptic responses, of the initial amplitude ([1]; 10 μM NMDA for 40 min.): 109±4%
synaptic responses, of the initial amplitude ([1]; 10 μM NMDA for 3 hours): 66±5%
synaptic responses, of the initial amplitude ([1]; 10 μM NMDA for 1 day): 52±2%
synaptic responses, of the initial amplitude ([1]; 10 μM NMDA for 3 days): 18±3%
maximal amplitude of synaptic responses, of control values ([1]; 10 μM NMDA, three hours of incubation, n=3): 18±4%
effect of chronic exposure on synaptic responses [1]: dose-dependent decreases in synaptic responses
Hill coefficient [1]: 1.7±0.2
EC50 [1]: 5.2 ± 0.5 µM
amplitude of synaptic responses, of control values ([1]; end of incubation with 10 μM NMDA for 40 min., n=3): 48±12%
amplitude of synaptic responses, of control values ([1]; end of incubation with 10 μM NMDA for 3 hours, n=3): 22±7%
amplitude of synaptic responses, of control values ([1]; end of incubation with 10 μM NMDA for 1 day, n=3): 13±3%
amplitude of synaptic responses, of control values ([1]; end of incubation with 10 μM NMDA for 3 days, n=3): 11±3%
Hill coefficient (PI uptake method) [2]: 3.7±1.0
EC50 [2]: 21.6 ± 3.4 µM

CC12CC3CC(C)(C1)CC(N)(C3)C2 [memantine]
initial amplitude preserved ([3]; 10 μM NMDA and 30 μM memantine, up to 3 days of incubation, n=3): 78±5%
Hill coefficient of protection ([3]; 10 μM NMDA and various concentrations of memantine): 1.1±3
IC50 ([3]; Rattus norvegicus, 10 μM NMDA and various concentrations of memantine, read-out: IC50 of protection (Hill equation)): 6.9 ± 1.6 µM
synaptic transmission ([4]; memantine alone, even at 30 μM, long-term incubation): did not result in a significant decrease

C[C@]12N[C@H](Cc3ccccc31)c1ccccc12 [MK-801]
protection of synaptic transmission against NMDA-mediated neurotoxicity ([3]; 10 μM NMDA and 1 μM MK-801, 3 hours up to 3 days): almost completely protected
relative amplitude of synaptic responses at plateau of I/O curves, of control ([3]; 10 μM NMDA and 1 μM MK-801, 3 days of incubation, n=3): 91±6%
synaptic responses ([4]; 1 μM MK-801 alone, 3 hours of incubation): not affected
amplitudes of responses, of control ([4]; 1 μM MK-801 alone, 1 day of incubation): 83±6%
amplitudes of responses, of control ([4]; 1 μM MK-801 alone, 2 days of incubation): 79±11%
amplitudes of responses, of control ([4]; 1 μM MK-801 alone, 3 days of incubation): 76±10%
